{
  "source": "patent US9164102B2",
  "about": "“Methods of screening for TRPM4b modulators” (The Queen's Medical Center, priority 2002, dated 2015)",
  "target": "T1, TRPM4b (Homo sapiens, UniProt Q8TD43)",
  "T1 construct": "expressed in transfected cells",
  "T1 sequence (Q8TD43 whole entry)": "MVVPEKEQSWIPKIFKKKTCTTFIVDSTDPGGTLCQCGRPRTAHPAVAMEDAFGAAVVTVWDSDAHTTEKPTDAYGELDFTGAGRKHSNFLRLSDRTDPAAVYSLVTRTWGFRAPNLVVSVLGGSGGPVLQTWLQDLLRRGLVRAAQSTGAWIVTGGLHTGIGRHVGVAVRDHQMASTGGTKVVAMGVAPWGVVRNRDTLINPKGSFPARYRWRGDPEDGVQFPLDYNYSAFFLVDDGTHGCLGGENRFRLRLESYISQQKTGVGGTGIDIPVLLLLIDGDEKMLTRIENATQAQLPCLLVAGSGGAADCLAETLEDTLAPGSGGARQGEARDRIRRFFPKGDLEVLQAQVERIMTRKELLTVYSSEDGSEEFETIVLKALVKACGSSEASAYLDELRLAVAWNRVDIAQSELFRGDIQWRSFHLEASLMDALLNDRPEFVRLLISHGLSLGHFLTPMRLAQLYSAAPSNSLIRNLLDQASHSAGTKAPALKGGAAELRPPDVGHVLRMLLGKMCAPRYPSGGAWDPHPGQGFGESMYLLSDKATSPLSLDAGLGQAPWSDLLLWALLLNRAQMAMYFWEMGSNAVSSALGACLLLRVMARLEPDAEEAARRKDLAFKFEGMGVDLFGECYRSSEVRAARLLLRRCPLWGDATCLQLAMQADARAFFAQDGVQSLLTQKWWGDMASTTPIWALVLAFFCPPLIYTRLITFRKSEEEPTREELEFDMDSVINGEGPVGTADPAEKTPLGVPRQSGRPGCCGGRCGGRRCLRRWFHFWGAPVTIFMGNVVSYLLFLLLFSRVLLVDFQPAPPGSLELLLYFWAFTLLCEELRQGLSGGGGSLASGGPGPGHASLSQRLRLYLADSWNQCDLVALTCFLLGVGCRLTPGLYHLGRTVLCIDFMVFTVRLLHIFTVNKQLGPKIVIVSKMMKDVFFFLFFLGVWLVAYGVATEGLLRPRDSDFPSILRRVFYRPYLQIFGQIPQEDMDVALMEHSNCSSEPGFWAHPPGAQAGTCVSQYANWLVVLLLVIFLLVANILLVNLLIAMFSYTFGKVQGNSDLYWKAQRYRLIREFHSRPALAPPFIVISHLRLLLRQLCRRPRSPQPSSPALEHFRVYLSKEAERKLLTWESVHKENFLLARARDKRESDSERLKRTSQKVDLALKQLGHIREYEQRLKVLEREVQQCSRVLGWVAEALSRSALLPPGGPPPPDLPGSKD",
  "assay": "Patch-clamp recordings of TRPM4b currents in HEK-293 cells at buffered intracellular Ca2+",
  "format": "cell-based",
  "conditions": "cytosolic/intracellular Ca2+",
  "description": "Wild type and tetracycline-inducible […] Flag-TRPM4b-expressing cells were cultured at 37° C./5% CO2 in DMEM supplemented with 10% FBS and 2 mM glutamine. The medium was supplemented with blasticidin (5 μg/ml; Invitrogen) and zeocin (0.4 mg/ml; Invitrogen). Cells were resuspended in media containing 1 μg/ml tetracycline (Invitrogen) 24 hours before experiments. For patch-clamp experiments, cells were kept in a standard Ringer's solution (in mM): NaCl 145, KCl 2.8, CaCl2 1, MgCl2 2, glucose 10, Hepes.NaOH 10, pH 7.2. In some experiments, this solution was modified such that all but 1 mM of NaCl was replaced by choline-Cl (choline-based solution). In experiments where ATP was used, it was added at 1 mM of the Mg^2+ salt and extracellular Ca^2+ concentration was raised to 2 mM. The standard pipette-filling solutions contained (in mM): K-glutamate 145, NaCl 8, MgCl2 1, Cs-BAPTA 10, pH 7.2 adjusted with KOH. In some experiments, [Ca^2+]i was buffered to […] by 10 mM BAPTA and appropriate concentrations of CaCl2 or left unbuffered. For inside-out single-channel recordings, the patch was excised into a similar solution, except that KCl was used instead of K-glutamate. All reagents were purchased from Sigma and dissolved in the standard intracellular solution. […] Capacitive currents and series resistance were determined and corrected before each voltage ramp. […]",
  "data": [
    {"smiles": "[Ca+2]", "note": "[Ca^2+]", "values": [
      {"measurement": "Ca^2+ concentration at which direct gating of the TRPM4b channel appears to begin", "value": "~300", "unit": "nM"}
    ]}
  ]
}
